In paper PMC9884426, “A phase 1 clinical trial of the repurposable acetyllysine mimetic, n-methyl-2-pyrrolidone (NMP), in relapsed or refractory multiple myeloma” (Clinical Epigenetics, 2023):
Where “and” joins values, the source holds several entries; their conditions need not be identical. Equal values may be shown once.

Test system: relapsed/refractory multiple myeloma (RR–MM)
Test: Phase 1 trial of oral NMP: efficacy (IMWG response, progression-free and overall survival)
Format: in vivo, human
Experimental: This was a phase 1, open-label dose-escalation trial of orally administered NMP in patients with relapsed/refractory multiple myeloma (RR–MM). Eligible patients were ≥ 18 years old with Eastern Cooperative Oncology Group (ECOG) < 2 and histologically confirmed plasma cell myeloma defined by WHO 2008 criteria with measurable disease (defined by serum M-protein > 5 g/L, urine M-protein > 200 mg/24 h, involved serum free light chain > 100 mg/L or measurable soft tissue plasmacytoma). Patients were required to have relapsed following prior treatment and/or be refractory to or intolerant of both bortezomib and lenalidomide and must have undergone autologous stem cell transplant (unless deemed ineligible at investigator discretion). Exclusion criteria included: central nervous system involvement, active second malignancy within two years, uncontrolled medical conditions contraindicating an investigational agent due to inadequate organ function and concomitant exposure to anti-myeloma therapies.
The primary study endpoint was to determine the MTD of orally administered NMP in patients with RR–MM. Secondary endpoints included safety, PK analyses, IMWG defined response rate and exploratory immunological biomarkers. Adverse events were defined according to Common Terminology Criteria for Adverse Events (CTCAE version 4.03). Haematological DLTs were defined as grade 4 neutropenia unresponsive to G-CSF, grade 4 thrombocytopenia and febrile neutropenia. Non-haematological DLTs were grade 3 or higher and considered probably related to study drug and not attributable to disease progression and those resulting treatment delays greater than two weeks due to drug-related toxicity. Self-limited (< 24 h) gastrointestinal side effects (e.g. nausea, diarrhoea) responding to supportive measures were not classified as DLTs.
Pharmaceutical grade NMP stock solution (Ashland, Columbus, OH, USA) was diluted in ORA SWEET® SF (Medical Flavouring Systems, Vic, Australia) oral syrup vehicle and sterile water to a final concentration of 50 mg/mL and dispensed weekly in amber glass bottles for storage a room temperature. […] Intra-patient dose escalation at 100 mg increments was also permitted whereby the MTD had not been determined and the patient tolerated two consecutive cycles without DLT or an objective disease response. […]
The study was planned to recruit up to 20 patients, 15 in the dose finding cohort and five as a dose expansion. […] Time to progression was calculated from the first day of treatment to progression using the Kaplan–Meier method. Flow cytometry and gene expression data were analysed using GraphPad Prism (version 6.0; GraphPad Software, San Diego, CA). Data were analysed using Wilcoxon’s matched pairs signed rank test compared with baseline samples (*p < 0.05).

Structure (SMILES): CN1CCCC1=O [NMP, N-methyl-2-pyrrolidone]
- Median overall survival (13 RR–MM patients, 95% CI 9.7– > 44.5 months, median follow-up 43.5 months): 33.1 months and 33 months
- Median progression-free survival (13 RR–MM patients, range 29–539 days): 57 days
- IMWG objective disease response (partial response or better), ORR (13 patients, 95% CI 0–25%): 0%
- best response of stable disease (SD), patients (nine of 13 patients, 95% CI 39–91%): 69%
